Test results: patent US5244678A, “Pharmaceutical composition containing a local anesthetic and/or centrally acting analgesic encapsulated in liposomes” (Ire-Celltarg S.A., priority 1986, dated 1993)
“Also recorded” adds a separate entry of the source.

What was measured:
[1] = Blood kinetics in whole blood after peridural injection in rabbits; assay type: in vivo; settings: rabbit
Description: Biodistribution and pharmacokinetics of the liposomes which have incorporated bupivacaine, administered peridurally
The formation of MLVs takes place by adding 3 ml of 0.3M Tris-HCl buffer, pH 8, followed by 5 centrifugations at 5000 g in the same buffer.
The results are expressed as a percentage of the injected dose (ID) in the whole blood.

[2] = Urinary excretion of radioactivity 2 hours after peridural injection; assay type: in vivo; settings: rabbit, mean ± standard deviation, n=3
Description: Radioactivity excreted in the urine (ID×10^2) 2 hours after the peridural injection of [^3 H]Ch-labeled SUV, of MLV which has integrated ^3 H-labeled bupivacaine, or of non-encapsulated bupivacaine. Mean±standard deviation; the number in brackets=the number of animals.

[3] = Biodistribution in the liver and heart 4 hours after peridural injection; assay type: in vivo; settings: rabbit, mean ± standard deviation, n=3
Description: 0.2 ml of the centrifugation pellet are administered peridurally to rabbits, under the same conditions as in Example 1.
By way of control, 4.5 mg of bupivacaine for clinical use (Marcaine®-Astra-[…] strength hydrochloride solution) is administered under the same conditions with or without adrenaline, and with the addition of 0.01 mCi of [^3 H]bupivacaine, this combination being present in a total 0.2 ml of solution.
Likewise, by way of control, SUVs without bupivacaine are administered in the course of this study, under the conditions stated in Example 1.
The animals are sacrificed 120 and 240 minutes after the injection, and the organs and tissues are sampled under the same conditions as those of Example 1.
Biodistribution of [^3 H]Ch SUV, of MLVS which have integrated [^3 H]bupivacaine, and of bupivacaine, in the liver and heart 4 hours after the peridural injection (ID×10^2).

[4] = Uptake by the nervous tissues after peridural injection; assay type: in vivo; settings: rabbit, mean ± standard deviation, n=3
Source text: Mean±standarddeviation; number in brackets=number of animals.

[5] = test system: tail of rats; assay: Analgesic effect: threshold of the pain induced by an electric shock to the tail of rats; assay type: in vivo; settings: rat tail, point S2
Description: The analgesic effect is measured by the increase in the threshold of the pain induced by an electric shock to the tail of rats.
Lipid film: Egg Pc/Chol, 4:3-60 mg of lipids (equivalent to 43.26 mg of egg Pc and 16.74 mg of Chol)+5 mg of bupivacaine base in lyophilized, liposoluble form. Formation of the liposomes: Suspension of the lipid film in the form of multilamellar liposomes in a 0.3M Tris-HCl buffer, pH 8 (3 ml). The liposomal suspension is centrifuged, and the liposomal pellet is injected as it is (0.5 ml) under the skin, in the rat's tail at a point S2.
The pain threshold is measured by electrical excitation at S2, and then at S1 (S1, situated 5 cm downstream from the injection point, serves for taking a reference with respect to the injection point, and also for measuring the possible diffusion of the product injected at S2).

[6] = test system: motor fibers; settings: bupivacaine used today in anesthesia; general knowledge; cited from earlier work

## CCCCN1CCCCC1C(=O)Nc1c(C)cccc1C (stereo not drawn) [Bupivacaine, bupivacaine]
[1]
  highest blood level (blood peak): 1.4 % of the injected dose
[2]
  Radioactivity excreted in the urine: 11.633 ± 0.518 ID×10^2
[3]
  Biodistribution in the heart: 2.142 ± 0.301 ID×10^2
  Biodistribution in the liver: 20.477 ± 1.458 ID×10^2
[4]; 2 hrs
  Uptake by brachial plexus: 0.295 ± 0.048 ID in 1 g×10^3
  Uptake by cauda equina: 0.485 ± 0.057 ID in 1 g×10^3
  Uptake by lumbar marrow: 0.411 ± 0.094 ID in 1 g×10^3
  Uptake by sciatic nerve: 0.281 ± 0.026 ID in 1 g×10^3
[4]; 4 hrs
  Uptake by brachial plexus: 1.136 ± 0.008 ID in 1 g×10^3
  Uptake by cauda equina: 0.132 ± 0.035 ID in 1 g×10^3
  Uptake by lumbar marrow: 0.169 ± 0.046 ID in 1 g×10^3
  Uptake by nerve roots: 0.153 ± 0.023 ID in 1 g×10^3
  Uptake by sciatic nerve: 0.132 ± 0.028 ID in 1 g×10^3
[5]
  time of rise of the pain threshold after injection: less than one hour
[6]
  effect on sensory and motor fibers: blocks the sensory fibers and not the motor fibers; also recorded: affects motor fibers to only a small extent, if at all
